Results published in patent publication US12410160B2 (Gilead Sciences, Inc., priority 2021, dated 2025).
Where “and” joins values, the source holds several entries; their conditions need not be identical. Equal values may be shown once.

Assays:
human KHK-A = human KHK-A (Homo sapiens (Human), UniProt P50053); assay: KHK Biochemical Assay (IC50), ADP-Glo, KHK-A; settings: ADP-Glo; average of at least two separate assays
Method: (§1) The His-tagged fusion protein was expressed using BL21 (DE3) with IPTG induction and purified using Ni-NTA column followed by dialysis into final buffer containing 25 mM Tris-HCl pH 8.0, 250 mM NaCl.
(§2) KHK Biochemical Assay (IC50)
(§3) Compounds were tested for KHK enzyme inhibition in a high-throughput 384-well assay format using the ADP-Glo assay (Promega) in buffer consisting of 50 mM Hepes (pH 7.4), 140 mM KCl, 5 mM MgCl2 and 0.01% Triton-X. 0.2 nM. […] Compounds were serially diluted (1:3) in DMSO.
(§4) The compounds were pre-incubated with 5 μL of 2× final enzyme concentration for 30 minutes before adding 5 μL of 2× final concentration of ATP and fructose. The plates were incubated at room temperature for 4 hours before adding ADP-Glo reagent to quench the enzyme reaction, followed by incubation at room temperature for 1 hour. The ADP-Glo detection reagent was then added to the plates and luminescence was measured on the Envision plate reader after 1 hour.

human KHK-C = human KHK-C (Homo sapiens (Human), UniProt P50053); assay: KHK Biochemical Assay (IC50), ADP-Glo, KHK-C; settings: ADP-Glo; average of at least two separate assays
Sequence of human KHK-C (P50053 whole entry): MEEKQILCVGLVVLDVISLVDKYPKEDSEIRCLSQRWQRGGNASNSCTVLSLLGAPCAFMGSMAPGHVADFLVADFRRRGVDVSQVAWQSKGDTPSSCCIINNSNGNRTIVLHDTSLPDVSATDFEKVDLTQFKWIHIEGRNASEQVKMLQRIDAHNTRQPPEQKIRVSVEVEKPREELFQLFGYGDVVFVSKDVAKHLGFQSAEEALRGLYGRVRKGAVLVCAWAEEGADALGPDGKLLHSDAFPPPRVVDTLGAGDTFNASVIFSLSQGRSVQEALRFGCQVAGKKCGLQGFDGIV
Method: as §1, §2, §3, §4

Sequence of human KHK-A (P50053 other isoform, or with tags, fused parts or gaps): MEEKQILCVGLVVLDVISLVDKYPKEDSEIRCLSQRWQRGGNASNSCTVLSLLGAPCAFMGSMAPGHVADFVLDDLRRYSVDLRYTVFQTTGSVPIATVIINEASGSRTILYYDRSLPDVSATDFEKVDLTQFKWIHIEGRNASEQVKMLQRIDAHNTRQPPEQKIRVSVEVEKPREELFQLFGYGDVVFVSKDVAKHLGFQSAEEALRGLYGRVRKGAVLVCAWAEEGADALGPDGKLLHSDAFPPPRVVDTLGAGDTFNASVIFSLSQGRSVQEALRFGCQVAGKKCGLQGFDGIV

SMILES	IC50 (human KHK-A)	IC50 (human KHK-C)
C[C@H]1CCN1c1nc(-c2ccccc2)c2c(n1)C1CCC2C1 (stereo partly drawn) [Example 31, 2-((S)-2-methylazetidin-1-yl)-4-phenyl-5,6,7,8-tetrahydro-5,8-methanoquinazoline]	935 nM	1480 nM
C[C@H]1[C@H](O)CN1c1nc2c(c(-c3cccc(C(N)=O)c3)n1)CCC2 [Example 32]	86.8 nM	125 nM
C[C@H]1CCN1c1nc(-c2cccc(C(N)=O)c2)c2c(n1)C1CCC2C1 (stereo partly drawn) [Example 33, 3-(2-((S)-2-methylazetidin-1-yl)-5,6,7,8-tetrahydro-5,8-methanoquinazolin-4-yl)benzamide]	272 nM	240 nM
C[C@H]1CCN1c1nc(-c2cn[nH]c2)c2c(cnn2C)n1 [Example 35, (S)-1-methyl-5-(2-methylazetidin-1-yl)-7-(1H-pyrazol-4-yl)-1H-pyrazolo[4,3-d]pyrimidine]	189 nM	220 nM
C[C@H]1CCN1c1nc(-c2cccc(S(N)(=O)=O)c2)c2c(cnn2C)n1 [Example 37, (S)-3-(1-methyl-5-(2-methylazetidin-1-yl)-1H-pyrazolo[4,3-d]pyrimidin-7-yl)benzenesulfonamide]	224 nM	213 nM
C[C@H]1CCN1c1nc2c(c(-c3cccc(NS(C)(=O)=O)c3)n1)CCC2 [Example 42, (S)—N-(3-(2-(2-methylazetidin-1-yl)-6,7-dihydro-5H-cyclopenta[d]pyrimidin-4-yl)phenyl)methanesulfonamide]	31.8 nM	22.7 nM
C[C@H]1CCN1c1nc2c(c(-c3cccs3)n1)CCC2 [Example 45, (S)-2-(2-methylazetidin-1-yl)-4-(thiophen-2-yl)-6,7-dihydro-5H-cyclopenta[d]pyrimidine]	118 nM	108 nM
C[C@H]1CCN1c1nc2c(c(-c3cccc(C4CC4C(=O)O)c3)n1)CCC2 (stereo partly drawn) [Example 46, 2-(3-(2-((S)-2-methylazetidin-1-yl)-6,7-dihydro-5H-cyclopenta[d]pyrimidin-4-yl)phenyl)cyclopropane-1-carboxylic acid]	10 nM	7.6 nM
C[C@H]1CCN1c1nc2c(c(-c3ccc(C#N)s3)n1)CCC2 [Example 49, (S)-5-(2-(2-methylazetidin-1-yl)-6,7-dihydro-5H-cyclopenta[d]pyrimidin-4-yl)thiophene-2-carbonitrile]	125 nM	222 nM
C[C@H]1CCN1c1nc2c(c(-c3cccc(C(=O)NCCNC(=O)OC(C)(C)C)c3)n1)CCC2 [Example 51, tert-butyl (S)-(2-(3-(2-(2-methylazetidin-1-yl)-6,7-dihydro-5H-cyclopenta[d]pyrimidin-4-yl)benzamido)ethyl)carbamate]	144 nM	309 nM
C[C@H]1CCN1c1nc2c(c(-c3cccc(S(=O)(=O)NCCO)c3)n1)CCC2 [Example 54, (S)—N-(2-hydroxyethyl)-3-(2-(2-methylazetidin-1-yl)-6,7-dihydro-5H-cyclopenta[d]pyrimidin-4-yl)benzenesulfonamide]	42 nM	40.4 nM
C[C@H]1CCN1c1nc2c(c(-c3ccc(-c4ccccc4)nc3)n1)CCC2 [Example 55, (S)-2-(2-methylazetidin-1-yl)-4-(6-phenylpyridin-3-yl)-6,7-dihydro-5H-cyclopenta[d]pyrimidine]	1080 nM	801 nM
C[C@H]1CCN1c1nc2c(c(-c3ccc(C(N)=O)s3)n1)CCC2 [Example 56, (S)-5-(2-(2-methylazetidin-1-yl)-6,7-dihydro-5H-cyclopenta[d]pyrimidin-4-yl)thiophene-2-carboxamide]	3.8 nM	7.7 nM
C[C@H]1CCN1c1nc(-c2cccc(C(N)=O)c2)c2c(n1)[C@H]1CC[C@@H]2C1 [Example 62, 3-((5R,8S)-2-((S)-2-methylazetidin-1-yl)-5,6,7,8-tetrahydro-5,8-methanoquinazolin-4-yl)benzamide]	1920 nM	2930 nM
C[C@H]1CCN1c1nc2c(c(-c3cccc(C(=O)Nc4cn[nH]c4)c3)n1)CCC2 [Example 64, (S)-3-(2-(2-methylazetidin-1-yl)-6,7-dihydro-5H-cyclopenta[d]pyrimidin-4-yl)-N-(1H-pyrazol-4-yl)benzamide]	52.7 nM	107 nM
C[C@H]1CCN1c1nc2c(c(-c3cccc(N)c3)n1)CCC2 [Example 71, (S)-3-(2-(2-methylazetidin-1-yl)-6,7-dihydro-5H-cyclopenta[d]pyrimidin-4-yl)aniline]	107 nM	104 nM
C[C@H]1CCN1c1nc2c(c(-c3cccc(NS(=O)(=O)c4cn(C)cn4)c3)n1)CCC2 [Example 73, (S)-1-methyl-N-(3-(2-(2-methylazetidin-1-yl)-6,7-dihydro-5H-cyclopenta[d]pyrimidin-4-yl)phenyl)-1H-imidazole-4-sulfonamide]	175 nM	156 nM
Cc1noc(C)c1S(=O)(=O)Nc1cccc(-c2nc(N3CC[C@@H]3C)nc3c2CCC3)c1 [Example 76, (S)-3,5-dimethyl-N-(3-(2-(2-methylazetidin-1-yl)-6,7-dihydro-5H-cyclopenta[d]pyrimidin-4-yl)phenyl)isoxazole-4-sulfonamide]	1150 nM	876 nM
CC(=O)Nc1ncc(S(=O)(=O)Nc2cccc(-c3nc(N4CC[C@@H]4C)nc4c3CCC4)c2)s1 [Example 84, (S)—N-(5-(N-(3-(2-(2-methylazetidin-1-yl)-6,7-dihydro-5H-cyclopenta[d]pyrimidin-4-yl)phenyl)sulfamoyl)thiazol-2-yl)acetamide]	296 nM	279 nM
C[C@H]1CCN1c1nc2c(c(-c3cc(C(N)=O)ns3)n1)CCC2 [Example 85, (S)-5-(2-(2-methylazetidin-1-yl)-6,7-dihydro-5H-cyclopenta[d]pyrimidin-4-yl)isothiazole-3-carboxamide]	1120 nM	1370 nM
C[C@H]1[C@H](N)CN1c1nc2c(c(-c3ccc(C(N)=O)cc3)n1)CCC2 [Example 93]	> 5000 nM	> 5000 nM
c1ccc(-c2nc(C3CC3)nc3c2CCC3)cc1 [Example 96, 2-cyclopropyl-4-phenyl-6,7-dihydro-5H-cyclopenta[d]pyrimidine]	4660 nM	> 5000 nM

More lines, now with the values ahead:

IC50 (human KHK-A)	IC50 (human KHK-C)	SMILES
54.3 nM	57 nM	CC(=O)Nc1cccc(-c2nc(N3CC[C@@H]3C)nc3c2CCC3)c1 [Example 40, (S)—N-(3-(2-(2-methylazetidin-1-yl)-6,7-dihydro-5H-cyclopenta[d]pyrimidin-4-yl)phenyl)acetamide]
22.2 nM	42.7 nM	C[C@H]1CCN1c1nc2c(c(-c3cccc(C(=O)NCCN)c3)n1)CCC2 [Example 52, (S)—N-(2-aminoethyl)-3-(2-(2-methylazetidin-1-yl)-6,7-dihydro-5H-cyclopenta[d]pyrimidin-4-yl)benzamide]
130 nM	194 nM	CNCCNC(=O)c1cccc(-c2nc(N3CC[C@@H]3C)nc3c2CCC3)c1 [Example 53, (S)—N-(2-(methylamino)ethyl)-3-(2-(2-methylazetidin-1-yl)-6,7-dihydro-5H-cyclopenta[d]pyrimidin-4-yl)benzamide]
56.8 nM	90.3 nM	C[C@H]1CCN1c1nc2c(c(-c3cccc(C(=O)NCCO)c3)n1)CCC2 [Example 61, (S)—N-(2-hydroxyethyl)-3-(2-(2-methylazetidin-1-yl)-6,7-dihydro-5H-cyclopenta[d]pyrimidin-4-yl)benzamide]
150 nM	245 nM	C[C@H]1CCN1c1nc2c(c(-c3cccc(C(=O)Nc4cc[nH]n4)c3)n1)CCC2 [Example 65, (S)-3-(2-(2-methylazetidin-1-yl)-6,7-dihydro-5H-cyclopenta[d]pyrimidin-4-yl)-N-(1H-pyrazol-3-yl)benzamide]
128 nM	140 nM	C[C@H]1CCN1c1nc2c(c(-c3cccc(C(=O)NC4(C(=O)O)CC4)c3)n1)CCC2 [Example 67, (S)-1-(3-(2-(2-methylazetidin-1-yl)-6,7-dihydro-5H-cyclopenta[d]pyrimidin-4-yl)benzamido)cyclopropane-1-carboxylic acid]
94.3 nM	45.1 nM	C[C@H]1CCN1c1nc2c(c(-c3cccc(C(=O)N4CC(C(=O)O)C4)c3)n1)CCC2 [Example 68, (S)-1-(3-(2-(2-methylazetidin-1-yl)-6,7-dihydro-5H-cyclopenta[d]pyrimidin-4-yl)benzoyl)azetidine-3-carboxylic acid]
286 nM	145 nM	C[C@H]1CCN1c1nc2c(c(-c3cccc(C(=O)N4CC(CC(=O)O)C4)c3)n1)CCC2 [Example 69, (S)-2-(1-(3-(2-(2-methylazetidin-1-yl)-6,7-dihydro-5H-cyclopenta[d]pyrimidin-4-yl)benzoyl)azetidin-3-yl)acetic acid]
285 nM	315 nM	C[C@H]1CCN1c1nc2c(c(-c3cccc(C(=O)N4CC[C@H]4C(=O)O)c3)n1)CCC2 [Example 77, (S)-1-(3-(2-((S)-2-methylazetidin-1-yl)-6,7-dihydro-5H-cyclopenta[d]pyrimidin-4-yl)benzoyl)azetidine-2-carboxylic acid]
193 nM and 134 nM	239 nM and 129 nM	C[C@H]1CCN1c1nc2c(c(-c3cccc(C(=O)N4CC[C@@H]4C(=O)O)c3)n1)CCC2 [Example 78, (R)-1-(3-(2-((S)-2-methylazetidin-1-yl)-6,7-dihydro-5H-cyclopenta[d]pyrimidin-4-yl)benzoyl)azetidine-2-carboxylic acid]
